Source: the supplement of paper PMC10307832

Columns and labels:
Test in all cases: relative viability (nuclei count vs DMSO), 5 days (fraction); higher = more cells survive
[1] = compound: CCc1cnn2c(NCc3ccc[n+]([O-])c3)cc(N3CCCC[C@H]3CCO)nc12 [Dinaciclib] + CS(=O)(=O)N1CCN(Cc2cc3nc(-c4cccc5[nH]ncc45)nc(N4CCOCC4)c3s2)CC1 [Pictilisib] (partner 1 µM)
Procedure, shortened: (§1)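 One day after seeding in 1536-well plates, lung cancer cell lines were dosed by pin tool. Dosing was either single-drug or a fixed anchor-drug dose plus five library-drug doses (not always all listed) in √10 steps. After 5 days, nuclei were stained in one fix-and-stain step and counted on 4× images, and relative viability is the nuclei count of treated wells over that of vehicle wells, given as the median of duplicate plates.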

[2] = compound: CCc1cnn2c(NCc3ccc[n+]([O-])c3)cc(N3CCCC[C@H]3CCO)nc12 [Dinaciclib] + C[C@@H](Oc1cc(-c2cnn(C3CCNCC3)c2)cnc1N)c1c(Cl)ccc(F)c1Cl [Crizotinib] (partner 1 µM)
Procedure, shortened: as §1

[3] = compound: CCc1cnn2c(NCc3ccc[n+]([O-])c3)cc(N3CCCC[C@H]3CCO)nc12 [Dinaciclib] + CC(=O)Nc1cccc(-n2c(=O)n(C3CC3)c(=O)c3c(Nc4ccc(I)cc4F)n(C)c(=O)c(C)c32)c1 [Trametinib] (partner 0.02 µM)
Procedure, shortened: as §1

[4] = compound: CCc1cnn2c(NCc3ccc[n+]([O-])c3)cc(N3CCCC[C@H]3CCO)nc12 [Dinaciclib] + O=C(c1cc(Cc2n[nH]c(=O)c3ccccc23)ccc1F)N1CCN(C(=O)C2CC2)CC1 [Olaparib] (partner 8 µM)
Procedure, shortened: as §1

[5] = compound: CCc1cnn2c(NCc3ccc[n+]([O-])c3)cc(N3CCCC[C@H]3CCO)nc12 [Dinaciclib] + NC(=O)Nc1cc(-c2cccc(F)c2)sc1C(=O)N[C@H]1CCCNC1 [AZD7762] (partner 0.2 µM)
Procedure, shortened: as §1

| Cell Line | relative viability ([1]; first compound 0.009487 µM) | relative viability ([1]; first compound 0.03 µM) | relative viability ([1]; first compound 0.09487 µM) | relative viability ([1]; first compound 0.3 µM) | relative viability ([2]; first compound 0.009487 µM) | relative viability ([2]; first compound 0.03 µM) | relative viability ([2]; first compound 0.09487 µM) | relative viability ([2]; first compound 0.3 µM) | relative viability ([3]; first compound 0.009487 µM) | relative viability ([3]; first compound 0.03 µM) | relative viability ([3]; first compound 0.09487 µM) | relative viability ([3]; first compound 0.3 µM) | relative viability ([4]; first compound 0.009487 µM) | relative viability ([4]; first compound 0.03 µM) | relative viability ([4]; first compound 0.09487 µM) | relative viability ([4]; first compound 0.3 µM) | relative viability ([5]; first compound 0.009487 µM) | relative viability ([5]; first compound 0.03 µM) | relative viability ([5]; first compound 0.09487 µM) | relative viability ([5]; first compound 0.3 µM) |
| --- | --- | --- | --- | --- | --- | --- | --- | --- | --- | --- | --- | --- | --- | --- | --- | --- | --- | --- | --- | --- |
| SK-MES-1 | 0.381 | 0.24 | 0.128 | 0.128 | 0.969 | 0.18 | 0.191 | 0.155 | 0.536 | 0.175 | 0.192 | 0.178 | 0.333 | 0.16 | 0.139 | 0.139 | – | – | – | – |
| ABC-1 | 0.658 | 0.157 | 0.163 | 0.136 | 1.16 | 0.178 | 0.11 | 0.0832 | – | – | – | – | 0.807 | 0.316 | 0.272 | 0.252 | 0.87 | 0.642 | 0.189 | 0.178 |
| COR-L 105 | 0.306 | 0.23 | 0.224 | 0.25 | 0.923 | 0.192 | 0.171 | 0.189 | 0.41 | 0.327 | 0.35 | 0.329 | 0.957 | 0.391 | 0.312 | 0.269 | – | – | – | – |
| NCI-H2009 | 0.661 | 0.0836 | 0.0705 | 0.0666 | 1.13 | 0.0796 | 0.0746 | 0.0749 | 0.288 | 0.0748 | 0.0773 | 0.0564 | 0.584 | 0.254 | 0.0848 | 0.0797 | – | – | – | – |
| NCI-H1703 | 0.26 | 0.154 | 0.127 | 0.133 | 0.61 | 0.229 | 0.0855 | 0.106 | – | – | – | – | 0.475 | 0.0997 | 0.0838 | 0.113 | 0.132 | 0.125 | 0.0862 | 0.087 |
| NCI-H2023 | 0.26 | 0.0718 | 0.0607 | 0.0559 | 0.93 | 0.0702 | 0.05 | 0.0622 | 0.382 | 0.078 | 0.0799 | 0.0821 | 0.29 | 0.0582 | 0.0542 | 0.0574 | – | – | – | – |
| NCI-H1650 | 0.536 | 0.146 | 0.101 | 0.112 | 0.97 | 0.121 | 0.0986 | 0.113 | 0.516 | 0.163 | 0.151 | 0.119 | 0.861 | 0.431 | 0.127 | 0.0993 | – | – | – | – |
| NCI-H1395 | 0.483 | 0.248 | 0.269 | 0.248 | – | – | – | – | 1.11 | 0.315 | 0.281 | 0.289 | 0.469 | 0.279 | 0.264 | 0.32 | 0.324 | 0.31 | 0.276 | 0.29 |
| NCI-H1793 | 0.288 | 0.177 | 0.145 | 0.2 | – | – | – | – | 0.388 | 0.174 | 0.15 | 0.151 | 0.64 | 0.139 | 0.119 | 0.153 | 0.83 | 0.144 | 0.156 | 0.121 |
| NCI-H2342 | – | – | – | – | – | – | – | – | 0.82 | 0.847 | 0.343 | 0.31 | 0.391 | 0.306 | 0.176 | 0.192 | 0.627 | 0.572 | 0.206 | 0.225 |
| NCI-H520 | 0.25 | 0.169 | 0.0942 | 0.165 | 0.573 | 0.102 | 0.124 | 0.128 | 0.506 | 0.104 | 0.0836 | 0.104 | 0.259 | 0.117 | 0.101 | 0.114 | – | – | – | – |
| UMC-11 | 0.217 | 0.145 | 0.132 | 0.136 | 0.157 | 0.0965 | 0.094 | 0.0987 | 0.253 | 0.172 | 0.132 | 0.146 | 0.176 | 0.157 | 0.146 | 0.165 | – | – | – | – |
| SK-LU-1 | 0.57 | 0.167 | 0.155 | 0.152 | 0.602 | 0.207 | 0.19 | 0.204 | 0.517 | 0.176 | 0.205 | 0.186 | 0.381 | 0.173 | 0.165 | 0.16 | – | – | – | – |
| SW 1573 | 0.452 | 0.225 | 0.0748 | 0.064 | 0.608 | 0.0718 | 0.066 | 0.0807 | 0.404 | 0.0877 | 0.0832 | 0.0755 | 0.224 | 0.0736 | 0.062 | 0.0659 | – | – | – | – |
| NCI-H522 | – | – | – | – | – | – | – | – | 0.757 | 0.795 | 0.255 | 0.251 | 0.573 | 0.469 | 0.339 | 0.204 | 0.899 | 0.991 | 0.359 | 0.211 |
| NCI-H2228 | 0.484 | 0.0919 | 0.0936 | 0.1 | 0.526 | 0.178 | 0.135 | 0.103 | 0.496 | 0.11 | 0.0915 | 0.116 | 0.793 | 0.181 | 0.101 | 0.143 | – | – | – | – |
| COR-L23 | 0.414 | 0.0756 | 0.0621 | 0.0547 | 0.456 | 0.0842 | 0.0684 | 0.0575 | 0.508 | 0.111 | 0.0846 | 0.0705 | 0.356 | 0.112 | 0.0765 | 0.0765 | – | – | – | – |
